# Columns and labels:
# [1] = biological target: benzodiazepine receptor of the rat cerebral cortex; assay: Benzodiazepine receptor binding, competition with [3H]flunitrazepam; conditions: [3H]flunitrazepam 0.4 nM, 4° C., 60 minutes
# Procedure: Benzodiazepine Receptor Binding. Compound 1 and Indiplon were compared in their ability to bind to compete with [^3H] flunitrazepam (0.4 nM) for binding to the benzodiazepine receptor of the rat cerebral cortex using the method of Speth, R C et al., 1979, Life Sci., 24:351-358. Varying concentrations of Indiplon or Compound 1 (30 pM-1 μM) were used. Diazepam (3 μM) was used as a non-specific receptor binding compound. Binding was allowed to proceed at 4° C. for 60 minutes. Quantification of binding was determined by scintillation counting.
# [2] = Human liver microsome metabolic stability assay (separate incubations); format: in vitro ADME; conditions: 1.0 mg/mL human liver microsomes
# Excerpt: Human Microsomal Assay: The metabolic stability of the present compounds may be evaluated in one or more microsomal assays that are known in the art. See, for example, Obach, R. S. Drug Metab Disp 1999, 27, p. 1350 “Prediction of human clearance of twenty-nine drugs from hepatic microsomal intrinsic clearance data: An examination of in vitro half-life approach and nonspecific binding to microsomes”; Houston, J. B. et al., Drug Metab Rev 1997, 29, p. 891 “Prediction of hepatic clearance from microsomes, hepatocytes, and liver slices”; Houston, J. B. Biochem Pharmacol 1994, 47, p. 1469 “Utility of in vitro drug metabolism data in predicting in vivo metabolic clearance”; Iwatsubo, T et al., Pharmacol Ther 1997, 73, p. 147 “Prediction of in vivo drug metabolism in the human liver from in vitro metabolism data”; and Lave, T. et al., Pharm Res 1997, 14, p. 152 “The use of human hepatocytes to select compounds based on their expected hepatic extraction ratios in humans”; each of which are incorporated herein in their entirety.
# The objectives of this study were to determine the metabolic stability of the test compounds in pooled liver microsomal incubations and to perform full scan LC-MS analysis for the detection of major metabolites. Samples of the test compounds, exposed to pooled human liver microsomes, were analyzed using HPLC-MS (or MS/MS) detection. For determining metabolic stability, multiple reaction monitoring (MRM) was used to measure the disappearance of the test compounds. For metabolite detection, Q1 full scans were used as survey scans to detect the major metabolites.
# Experimental Procedures: Human liver microsomes were obtained from Absorption Systems L.P. (Exton, Pa.). Details about the matrices used in the experiments are shown below. The incubation mixture was prepared as follows:
# Reaction Mixture Composition
# Incubation of Test Compounds with Liver Microsomes: The reaction mixture, minus cofactors, was prepared. An aliquot of the reaction mixture (without cofactors) was incubated in a shaking water bath at 37° C. for 3 minutes. Another aliquot of the reaction mixture was prepared as the negative control. The test compound was added into both the reaction mixture and the negative control at a final concentration of 1 μM. An aliquot of the reaction mixture was prepared as a blank control, by the addition of plain organic solvent (not the test compound). The reaction was initiated by the addition of cofactors (not into the negative controls), and then incubated in a shaking water bath at 37° C. Aliquots (200 μL) were withdrawn in triplicate at 0, 15, 30, 60, and 120 minutes and combined with 800 μL of ice-cold 50/50 acetonitrile/dH2O to terminate the reaction. The positive controls, testosterone and propranolol, were run simultaneously with the test compounds in separate reactions.
# All samples were analyzed using LC-MS (or MS/MS). An LC-MRM-MS/MS method was used for metabolic stability. Also, Q1 full scan LC-MS methods were performed on the blank matrix and the test compound incubation samples. The Q1 scans served as survey scans to identify any sample unique peaks that might represent the possible metabolites. The masses of these potential metabolites can be determined from the Q1 scans.
# [3] = Co-incubation of Compound 1 and Indiplon with human liver microsomes; format: in vitro ADME
# Procedure: Co-incubation of Compound 1 and Indiplon with Human Liver Microsomes: In another set of experiments Compound 1 and Indiplon were incubated together with human liver microsomes and their metabolism followed over time to eliminate any potential variability in samples. The reaction mixture compositions utilized in these experiments were as follows:
# Reaction Mixture Composition A:
# Reaction Mixture Composition B:
# Reaction Mixture Composition C:
# HPLC-grade solvents were used for preparation of all solutions. Dosing solutions of test agents were initially prepared at five times the final concentrations of the various reaction mixtures indicated above. Dosing solutions were warmed to 37° C. prior to the start of the assay. Two sets of triplicate wells were prepared in a 96-well deep well plate for each reaction mixture and warmed to 37° C. At the start of the assay, dosing solutions were diluted five-fold into the reaction wells. The reaction plate was incubated at 37° C., and 30 μL aliquots removed immediately after start (15 sec), and after each of 10 min, 20 min, 30 min, 40 min and 60 min of reaction. The aliquots were added to 30 μL of ice cold STOP Solution (acetonitrile containing 0.3% acetic acid with 3 mM haloperidol as an internal standard) in a separate 96-well plate. The stopped reactions were incubated at least 10 min at −20° C., and 30 μL of water was added. The plates were centrifuged for 15 min at 2000 rpm, 4° C. Approximate 60 μL of the supernatant was removed without disturbing the pellet and transferred to a fresh 96-well plate for analysis. Analysis samples were stored at −20° C. and analyzed by LC-MS.
# [4] = biological target: benzodiazepine site on the GABAA receptor (rat cortex); assay: Inhibition of [3H]flunitrazepam binding to rat cortex membranes; conditions: read-out: IC50 for displacing [3H]flunitrazepam binding to rat cortex
# [5] = test system: GABAA receptor (rat cortex membranes); assay: Enhancement of [35S]TBPS binding to rat cortex membranes
# Excerpt: A further index of activity at the benzodiazepine site on the GABAA receptor is the ability to increase the binding of [^35S] t-butylbicyclophosphorothionate (TBPS) to rat cortex membranes. TBPS binds to a site on the GABAA receptor which is closely associated with the chloride channel, and an increase in TBPS binding correlates with increased activation of the chloride conductance (i.e., enhanced GABAA receptor function). Compounds which act as agonists at the benzodiazepine site increase TBPS binding to varying degrees, which reflects their relative efficacies.
structure (smiles),measurement,setting,value
"CC(=O)N(C)c1cccc(-c2ccnc3c(C(=O)c4cccs4)cnn23)c1 [Compound 1, N-d3-Methyl-N-{3-[3-(thiophene-2-carbonyl)-pyrazolo[1,5-a]pyrimidin-7-yl]-phenyl}-acetamide]",IC50,[1],2.9 nM
same,Ki,[1],2.4 nM
"[2H]C([2H])([2H])N(C(C)=O)c1cccc(-c2ccnc3c(C(=O)c4cccs4)cnn23)c1 [Compound 1, N-d3-Methyl-N-{3-[3-(thiophene-2-carbonyl)-pyrazolo[1,5-a]pyrimidin-7-yl]-phenyl}-acetamide]",half life,[2]; 1 μM test compound,1.24 h
same,% remaining after 60 minutes of exposure,[2]; 1 μM test compound,66%
same,% remaining after 120 minutes of exposure,[2]; 1 μM test compound,59%
same,ratio of half lives of Compound 1 to Indiplon,[2]; 1 μM,1.261
same,half-life,"[3]; 0.1 μM each, 1.0 mg/ml human microsomes (FIG. 1 panel B)",4.557 h
same,ratio of half lives of Compound 1 to Indiplon,"[3]; 0.1 μM each, 1.0 mg/ml human microsomes (panel B)",1.257
same,half-life,"[3]; 0.2 μM each, 2.0 mg/ml human microsomes (FIG. 1 panel C)",2.543 h
same,ratio of half lives of Compound 1 to Indiplon,"[3]; 0.2 μM each, 2.0 mg/ml human microsomes (panel C)",1.312
same,half-life,"[3]; 0.5 μM each, 1.0 mg/ml human microsomes (FIG. 1 panel A)",3.405 h
same,ratio of half lives of Compound 1 to Indiplon,"[3]; 0.5 μM each, 1.0 mg/ml human microsomes (panel A)",1.260
"CC(=O)N(C)c1cccc(-c2ccnc3c(C(=O)c4cccs4)cnn23)c1 [Indiplon, N-methyl-N-[3-[3-(2-thienylcarbonyl)-pyrazolo[1,5-a]pyrimidin-7-yl]phenyl]acetamide]",% remaining after 60 minutes of exposure,[2]; 1 μM test compound,50%
same,% remaining after 120 minutes of exposure,[2]; 1 μM test compound,42%
same,half-life at 1 μM,"[2]; pooled human liver microsomes, 1 μM test compound",0.983 h
same,half-life at 0.1 μM,"[3]; human liver microsomes, 0.1 μM each, 1.0 mg/ml human microsomes (FIG. 1 panel B)",3.62 h
same,half-life at 0.2 μM,"[3]; human liver microsomes, 0.2 μM each, 2.0 mg/ml human microsomes (FIG. 1 panel C)",1.94 h
same,half-life at 0.5 μM,"[3]; human liver microsomes, 0.5 μM each, 1.0 mg/ml human microsomes (FIG. 1 panel A)",2.7 h
same,IC50,[1],3.6 nM
same,Ki,[1],3 nM
CN1C(=O)CN=C(c2ccccc2)c2cc(Cl)ccc21 [diazepam],IC50,[4],17 nM
same,Emax (maximum enhancement of TBPS binding over the concentration range employed),[5],55%
CN1C(=O)CN=C(c2ccccc2F)c2cc([N+](=O)[O-])ccc21 [flunitrazepam],IC50,[4],114 nM
CCN(CC)CCN1C(=O)CN=C(c2ccccc2F)c2cc(Cl)ccc21 [flurazepam],Emax (maximum enhancement of TBPS binding over the concentration range employed),[5],71%
Cc1nnc2n1-c1ccc(Cl)cc1C(c1ccccc1Cl)=NC2 [triazolam],IC50,[4],0.5 nM
same,Emax (maximum enhancement of TBPS binding over the concentration range employed),[5],78%
Cc1ccc(-c2nc3ccc(C)cn3c2CC(=O)N(C)C)cc1 [zolpidem],IC50,[4],26 nM

# Source: patent publication US20080058351A1, “Novel heterobicyclic compounds” (Concert Pharmaceuticals Inc., priority 2006, published 2008)
